Test system: lung cancer organoids from lung cancer tissue exhibiting EGFR mutations
Assay: Drug sensitivity test of lung cancer organoids (CellTiter-Glo 3D cell viability; calcein-AM staining)
Assay type: cell-based, human
Settings: for AUC (area under the curve) / IC50: EGFR-mutant lung cancer organoids, six concentrations, drug treatment for 3 days, viability on day 6; for IC50: Homo sapiens; for sensitivity of lung cancer organoids from EGFR-mutant lung cancer patients: result in words, EGFR-TKIs vs ALK inhibitors, consistent with the clinical response of EGFR-mutant patients
Experimental: The experimental overview is conceptually illustrated in FIG. 12.
The organoids were harvested and mixed with Matrigel (Corning Life Sciences, USA, catalog #354263) and seeded onto pillar plates at 5×10^5 cells/mL. Next, the Matrigel-cell mixture (1.5 μL) was spotted onto the coated pillar plates using a pre-cooled ASFA spotter (Medical & Bio Decision, Suwon, Republic of Korea) and incubated in an inverted position at 4 °C for 15 minutes to allow cells to aggregate at the bottom of the spots. The plates were then placed in humidity chamber at 37 °C to allow the spot to gel. Subsequently, the plates were combined with well plates containing fresh medium. After 3 days, cells were treated with EGFR or ALK targeting agents at six concentrations using the ASFA spotter. Cell viability was measured by staining with 0.5 μM calcein-AM at 37 °C for 1 hour, followed by two PBS washes for 20 minutes. The organoid spots were scanned using an automated optical fluorescence scanner (ASFA scanner, Medical & Bio Decision, Korea) The scanner's microscope automatically focused on cell spots by moving in the z-direction, capturing 384 individual images at 4× magnification from one stained pillar/well plate. The images were then integrated into a single JPEG image for data analysis. The scanned images were analyzed using CellAnalyzer version 2.0 (Medical & Bio Decision). After scanning the cells, the organoid spots were transferred to new 384-well plates containing CellTiter-Glo 3D reagent to measure intracellular ATP levels via luminescence activity.
In brief, a total of 5000 single cells per pillar of the plate were seeded in 1.5 μL medium and cultured for 3 days. Subsequently, various EGFR-TKIs and ALK inhibitors were administered at multiple doses for 3 days to determine IC50 and AUC (area under the curve). On day 6, organoid viability was confirmed using fluorescent dye Calcein-AM (see FIG. 13), and survival rates for each drug were measured using CellTiter-Glo 3D cell viability assay (G9681; Promega) (see FIG. 14).

Row | Compound | AUC (area under the curve) | IC50 [nM] | sensitivity of lung cancer organoids from EGFR-mutant lung cancer patients
1 | CN(C)C/C=C/C(=O)Nc1cc2c(Nc3ccc(F)c(Cl)c3)ncnc2cc1O[C@H]1CCOC1 [Afatinib] | 125.1 | 790 | showed sensitivity
2 | CCc1cc2c(cc1N1CCC(N3CCOCC3)CC1)C(C)(C)c1[nH]c3cc(C#N)ccc3c1C2=O [Alectinib] | 240.9 | > 50000 | –
3 | C[C@@H](Oc1cc(-c2cnn(C3CCNCC3)c2)cnc1N)c1c(Cl)ccc(F)c1Cl [Crizotinib] | 177.2 | 7100 | –
4 | C=CC(=O)Nc1cc(Nc2nccc(-c3cn(C)c4ccccc34)n2)c(OC)cc1N(C)CCN(C)C [Osimertinib] | 133.9 | 1800 | showed sensitivity
